Measured values from ChEMBL document CHEMBL4251679 (J Nat Prod, 2018).
pIC50: −log10 of the molar value. Active and inactive are the calls of the source. The rule behind the calls is not given here.

How the values were obtained:
Homo sapiens [1] = organism: Homo sapiens; assay: Inhibition of [3H]2-m-AzTax binding to P-gp in human SKVLB1 cell plasma membranes assessed as residual [3H]2-m-AzTax binding at 40 uM treated for 30 mins followed by UV irradiation measured after 10 mins by fluorographic method relative to control
Bos taurus = organism: Bos taurus; assay: Inhibition of [3H]2-m-AzTax binding to bovine brain beta-tubulin at 20 uM treated for 30 mins followed by UV irradiation for 10 mins by fluorographic method relative to control
[2] = biological target: Tubulin beta-4 chain (Gallus gallus) (UniProt P09652); assay: Inhibition of [3H]2-m-AzTax binding to chicken erythrocyte beta-tubulin 4 at 20 uM treated for 30 mins followed by UV irradiation for 10 mins by fluorographic method relative to control
Homo sapiens [3] = organism: Homo sapiens; assay: Inhibition of [3H]2-m-AzTax binding to P-gp in human SKVLB1 cell plasma membranes at 40 uM treated for 30 mins followed by UV irradiation for 10 mins by fluorographic method relative to control
Homo sapiens [4] = organism: Homo sapiens; assay: Binding affinity to P-gp in human SKVLB1 cells assessed as increase in [3H]vinblastine accumulation at 40 uM after 1 hr by liquid scintillation counting method; assay type: cell-based
HEY = assay: Cytotoxicity against human HEY cells after 72 to 120 hrs by sulforhodamine B assay; assay type: functional, cell-based
[5] = Cytotoxicity against human Hey/Tx100 cells after 72 to 120 hrs by sulforhodamine B assay; assay type: functional, cell-based
[6] = Cytotoxicity against human Hey/Ixab80 cells after 72 to 120 hrs by sulforhodamine B assay; assay type: functional, cell-based
[7] = Cytotoxicity against human Hey/EpoB8 cells after 72 to 120 hrs by sulforhodamine B assay; assay type: functional, cell-based
[8] = Resistance index, ratio of IC50 for human HEY/Tx100 cells to IC50 for human HEY cells; assay type: functional
[9] = Resistance index, ratio of IC50 for human HEY/Ixab80 cells to IC50 for human HEY cells; assay type: functional
[10] = Resistance index, ratio of IC50 for human HEY/EpoB8 cells to IC50 for human HEY cells; assay type: functional
SK-OV-3 [11] = assay: Cytotoxicity against human SKOV3 cells after 72 to 120 hrs by sulforhodamine B assay; assay type: functional, cell-based
[12] = Cytotoxicity against vinblastine-resistant human SKVLB1 cells after 72 to 120 hrs by sulforhodamine B assay; assay type: functional, cell-based
[13] = Resistance index, ratio of IC50 for vinblastine-resistant human SKVLB1 cells to IC50 for human SKOV3 cells; assay type: functional
SK-OV-3 [14] = assay: Cytotoxicity against human SKOV3 cells after 72 to 120 hrs in presence of verapamil by sulforhodamine B assay; assay type: functional, cell-based
[15] = Substrate activity at P-gp in human SKVLB1 cells assessed as inhibition of cell growth after 72 to 120 hrs by sulforhodamine B assay; assay type: cell-based
[16] = Substrate activity at P-gp in human SKVLB1 cells assessed as inhibition of cell growth after 72 to 120 hrs in presence of verapamil by sulforhodamine B assay; assay type: cell-based
P-gp [17] = assay: Resistance index, ratio of IC50 for substrate activity at P-gp in human SKVLB1 cells assessed as inhibition of cell growth to IC50 for human SKOV3 cells; assay type: toxicity, cell-based; conditions: SKVLB1 cells (P-gp) versus SKOV3 cells, read-out: Ratio IC50
P-gp [18] = assay: Resistance index, ratio of IC50 for substrate activity at P-gp in human SKVLB1 cells assessed as inhibition of cell growth in presence of verapamil to IC50 for human SKOV3 cells in presence of verapamil; assay type: toxicity, cell-based; conditions: SKVLB1 cells (P-gp) versus SKOV3 cells, with verapamil (concentration not stated), read-out: Ratio IC50
[19] = Ratio of fold resistance for substrate activity at P-gp in human SKVLB1 cells relative to sensitive human SKOV3 cells in absence of verapamil to fold resistance for substrate activity at P-gp in human SKVLB1 cells relative to sensitive human SKOV3 cells in presence of verapamil; assay type: toxicity, cell-based
SK-OV-3 [20] = assay: Effect on [3H]vinblastine accumulation in human SKOV3 cells at 40 uM after 1 hr by liquid scintillation counting method; assay type: functional, cell-based

Chain of Tubulin beta-4 chain (Gallus gallus) (P09652 whole entry): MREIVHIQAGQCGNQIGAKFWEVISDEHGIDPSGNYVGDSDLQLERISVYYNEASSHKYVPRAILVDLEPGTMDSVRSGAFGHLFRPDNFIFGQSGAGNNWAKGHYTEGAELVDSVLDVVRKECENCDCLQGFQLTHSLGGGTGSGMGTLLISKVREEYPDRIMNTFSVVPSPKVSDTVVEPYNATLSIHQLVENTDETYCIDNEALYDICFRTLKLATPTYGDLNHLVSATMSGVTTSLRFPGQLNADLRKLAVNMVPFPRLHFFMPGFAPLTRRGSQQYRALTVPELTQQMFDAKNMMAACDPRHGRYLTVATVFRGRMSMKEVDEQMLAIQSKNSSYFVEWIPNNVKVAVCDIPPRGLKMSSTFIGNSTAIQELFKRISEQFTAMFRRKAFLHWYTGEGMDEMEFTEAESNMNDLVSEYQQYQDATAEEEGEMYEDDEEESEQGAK

SMILES	Activity (Homo sapiens [1])	inhibition (Bos taurus)	inhibition [2]	inhibition (Homo sapiens [3])	Activity (Homo sapiens [4])	pIC50 (HEY)	pIC50 [5]	pIC50 [6]	pIC50 [7]	Ratio IC50 [8]	Ratio IC50 [9]	Ratio IC50 [10]	pIC50 (SK-OV-3 [11])	pIC50 [12]	Ratio IC50 [13]	pIC50 (SK-OV-3 [14])	pIC50 [15]	pIC50 [16]	Activity (SK-OV-3 [20])	further results
CC(=O)O[C@H]1C(=O)[C@@]2(C)[C@H]([C@H](OC(=O)c3cccc(N=[N+]=[N-])c3)[C@]3(O)C[C@H](OC(=O)[C@H](O)[C@@H](NC(=O)c4ccccc4)c4ccccc4)C(C)=C1C3(C)C)[C@]1(OC(C)=O)CO[C@@H]1C[C@@H]2O	16%	–	–	–	–	–	–	–	–	–	–	–	–	–	–	–	–	–	–	–
CC(=O)O[C@@]12CO[C@@H]1C[C@H](O)[C@@]1(C)C(=O)[C@H](O)C3=C(C)[C@@H](OC(=O)[C@H](O)[C@@H](NC(=O)OC(C)(C)C)c4ccccc4)C[C@@](O)([C@@H](OC(=O)c4ccccc4)[C@H]21)C3(C)C [DOCETAXEL ANHYDROUS]	45%	33%	98%	55%	Active	6.07	4.38	4.79	5.08	48	19	10	9.12	5.45	4704	–	–	–	–	–
CC(=O)O[C@H]1C(=O)[C@@]2(C)[C@H]([C@H](OC(=O)c3ccccc3)[C@]3(O)C[C@H](OC(=O)[C@H](O)[C@@H](NC(=O)c4ccccc4)c4ccccc4)C(C)=C1C3(C)C)[C@]1(OC(C)=O)CO[C@@H]1C[C@@H]2O [PACLITAXEL]	18%	9%	98%	Active	Active	5.57	3.62	3.82	4.65	89	56	8	8.41 to 8.62	4.90	5416	8.40	4.67	5.43	–	selectivity ratio (P-gp [17]): 5520; selectivity ratio (P-gp [18]): 936; Ratio [19]: 5.9
CC(=O)O[C@@]12CO[C@@H]1C[C@H](O)[C@@]1(C)C(=O)[C@H](OC(=O)C3CC3)C3=C(C)[C@@H](OC(=O)[C@H](O)[C@H](C=C(C)C)NC(=O)OC(C)(C)C)C[C@@](O)([C@@H](OC(=O)c4ccccc4)[C@H]21)C3(C)C	11%	38%	30%	89%	Active	6.24	5.64	5.80	5.10	–	–	–	8.84 to 9.21	7.12	–	8.84	6.74	7.33	inactive	–
CC(=O)O[C@@]1(C2/C(C)=C(/O)C(=O)C3=C(C)[C@@H](OC(=O)[C@H](O)[C@H](C=C(C)C)NC(=O)OC(C)(C)C)C[C@@](O)([C@H]2OC(=O)c2cccc(Cl)c2)C3(C)C)CO[C@H]1CCO (stereo partly drawn)	14%	32%	6%	> 80%	Active	6.09	4.54	4.89	4.86	35	16	17	8.94	5.80	1376	–	–	–	inactive	–
